Source: the supplement of paper PMC10307832

What was measured:
Test in all cases: relative viability (nuclei count vs DMSO), 5 days (fraction); higher = more cells survive
ChaGo-K-1 = test system: ChaGo-K-1
In short: (§1)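 One day after seeding in 1536-well plates, lung cancer cell lines were dosed by pin tool. Dosing was either single-drug or a fixed anchor-drug dose plus five library-drug doses (not always all listed) in √10 steps. After 5 days, nuclei were stained in one fix-and-stain step and counted on 4× images, and relative viability is the nuclei count of treated wells over that of vehicle wells, given as the median of duplicate plates.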

SK-MES-1 = test system: SK-MES-1
In short: as §1

NCI-H522 = test system: NCI-H522
In short: as §1

NCI-H1651 = test system: NCI-H1651
In short: as §1

NCI-H1648 = test system: NCI-H1648
In short: as §1

NCI-H1299 = test system: NCI-H1299
In short: as §1

A549 = test system: A549
In short: as §1

EBC-1 = test system: EBC-1
In short: as §1

IA-LM = test system: IA-LM
In short: as §1

NCI-H1703 = test system: NCI-H1703
In short: as §1

Calu-6 = test system: Calu-6
In short: as §1

`O=C(O)c1ccc(-c2c[nH]c3ncc(-c4ccccc4)cc23)cc1C1CCCC1` + CC(=O)Nc1cccc(-n2c(=O)n(C3CC3)c(=O)c3c(Nc4ccc(I)cc4F)n(C)c(=O)c(C)c32)c1 [Trametinib] (partner 0.02 µM) was tested, and the relative viability (ChaGo-K-1; first compound 0.04 µM) was 1.15, the relative viability (ChaGo-K-1; first compound 0.1265 µM) was 0.895 and the relative viability (ChaGo-K-1; first compound 0.4 µM) was 0.89. The relative viability (ChaGo-K-1; first compound 1.265 µM) was 0.857, the relative viability (SK-MES-1; first compound 0.04 µM) was 0.57 and the relative viability (SK-MES-1; first compound 0.1265 µM) was 0.538. The relative viability (SK-MES-1; first compound 0.4 µM) was 0.521, the relative viability (SK-MES-1; first compound 1.265 µM) was 0.524 and the relative viability (NCI-H522; first compound 0.04 µM) was 0.696. For the same compound, the relative viability (NCI-H522; first compound 0.1265 µM) was 0.761, the relative viability (NCI-H522; first compound 0.4 µM) was 0.763 and the relative viability (NCI-H522; first compound 1.265 µM) was 0.768. For the same compound, the relative viability (NCI-H1651; first compound 0.04 µM) was 0.822, the relative viability (NCI-H1651; first compound 0.1265 µM) was 0.853 and the relative viability (NCI-H1651; first compound 0.4 µM) was 0.829. The relative viability (NCI-H1651; first compound 1.265 µM) was 0.714, the relative viability (NCI-H1648; first compound 0.04 µM) was 0.589 and the relative viability (NCI-H1648; first compound 0.1265 µM) was 0.448. It also gave a relative viability (NCI-H1648; first compound 0.4 µM) of 0.494.
Work on `O=C(O)c1ccc(-c2c[nH]c3ncc(-c4ccccc4)cc23)cc1C1CCCC1` + CS(=O)(=O)N1CCN(Cc2cc3nc(-c4cccc5[nH]ncc45)nc(N4CCOCC4)c3s2)CC1 [Pictilisib] (partner 1 µM) yielded a relative viability (ChaGo-K-1; first compound 0.04 µM) of 0.788, a relative viability (ChaGo-K-1; first compound 0.1265 µM) of 1.11 and a relative viability (ChaGo-K-1; first compound 0.4 µM) of 0.649. The relative viability (ChaGo-K-1; first compound 1.265 µM) was 0.923, the relative viability (NCI-H1299; first compound 0.04 µM) was 0.832 and the relative viability (NCI-H1299; first compound 0.1265 µM) was 0.809. For the same compound, the relative viability (NCI-H1299; first compound 0.4 µM) was 0.69, the relative viability (NCI-H1299; first compound 1.265 µM) was 0.584 and the relative viability (A549; first compound 0.04 µM) was 0.508. The relative viability (A549; first compound 0.1265 µM) was 0.537, the relative viability (A549; first compound 0.4 µM) was 0.504 and the relative viability (A549; first compound 1.265 µM) was 0.291. For the same compound, the relative viability (EBC-1; first compound 0.04 µM) was 0.43, the relative viability (EBC-1; first compound 0.1265 µM) was 0.371 and the relative viability (EBC-1; first compound 0.4 µM) was 0.345. It also gave a relative viability (EBC-1; first compound 1.265 µM) of 0.327, a relative viability (IA-LM; first compound 0.04 µM) of 0.437 and a relative viability (IA-LM; first compound 0.1265 µM) of 0.363. For the same compound, the relative viability (IA-LM; first compound 0.4 µM) was 0.344, the relative viability (IA-LM; first compound 1.265 µM) was 0.402 and the relative viability (SK-MES-1; first compound 0.04 µM) was 0.326. For the same compound, the relative viability (SK-MES-1; first compound 0.1265 µM) was 0.399, the relative viability (SK-MES-1; first compound 0.4 µM) was 0.283 and the relative viability (SK-MES-1; first compound 1.265 µM) was 0.298. The relative viability (NCI-H1703; first compound 0.04 µM) was 0.262, the relative viability (NCI-H1703; first compound 0.1265 µM) was 0.298 and the relative viability (NCI-H1703; first compound 0.4 µM) was 0.272. It also gave a relative viability (NCI-H1703; first compound 1.265 µM) of 0.224, a relative viability (NCI-H1651; first compound 0.04 µM) of 0.557 and a relative viability (NCI-H1651; first compound 0.1265 µM) of 0.641. For the same compound, the relative viability (NCI-H1651; first compound 0.4 µM) was 0.451, the relative viability (NCI-H1651; first compound 1.265 µM) was 0.455 and the relative viability (Calu-6; first compound 0.04 µM) was 0.896. For the same compound, the relative viability (Calu-6; first compound 0.1265 µM) was 1.05, the relative viability (Calu-6; first compound 0.4 µM) was 0.822 and the relative viability (Calu-6; first compound 1.265 µM) was 0.667.
For `Oc1nc(-c2ccc(C(F)(F)F)cc2)nc2c1CSCC2` [XAV939] + CS(=O)(=O)N1CCN(Cc2cc3nc(-c4cccc5[nH]ncc45)nc(N4CCOCC4)c3s2)CC1 [Pictilisib] (partner 1 µM), the relative viability (ChaGo-K-1; first compound 0.08 µM) was 0.629, the relative viability (ChaGo-K-1; first compound 0.253 µM) was 0.598 and the relative viability (ChaGo-K-1; first compound 0.8 µM) was 0.729. It also gave a relative viability (ChaGo-K-1; first compound 2.53 µM) of 0.648, a relative viability (NCI-H1299; first compound 0.08 µM) of 0.857 and a relative viability (NCI-H1299; first compound 0.253 µM) of 0.701. For the same compound, the relative viability (NCI-H1299; first compound 0.8 µM) was 0.642, the relative viability (NCI-H1299; first compound 2.53 µM) was 0.511 and the relative viability (A549; first compound 0.08 µM) was 0.629. It also gave a relative viability (A549; first compound 0.253 µM) of 0.491, a relative viability (A549; first compound 0.8 µM) of 0.372 and a relative viability (A549; first compound 2.53 µM) of 0.296. The relative viability (EBC-1; first compound 0.08 µM) was 0.437, the relative viability (EBC-1; first compound 0.253 µM) was 0.346 and the relative viability (EBC-1; first compound 0.8 µM) was 0.329. For the same compound, the relative viability (EBC-1; first compound 2.53 µM) was 0.261, the relative viability (IA-LM; first compound 0.08 µM) was 0.449 and the relative viability (IA-LM; first compound 0.253 µM) was 0.317. The relative viability (IA-LM; first compound 0.8 µM) was 0.245, the relative viability (IA-LM; first compound 2.53 µM) was 0.17 and the relative viability (SK-MES-1; first compound 0.08 µM) was 0.401. It also gave a relative viability (SK-MES-1; first compound 0.253 µM) of 0.327, a relative viability (SK-MES-1; first compound 0.8 µM) of 0.415 and a relative viability (SK-MES-1; first compound 2.53 µM) of 0.32. The relative viability (NCI-H1703; first compound 0.08 µM) was 0.275, the relative viability (NCI-H1703; first compound 0.253 µM) was 0.243 and the relative viability (NCI-H1703; first compound 0.8 µM) was 0.258. The relative viability (NCI-H1703; first compound 2.53 µM) was 0.241, the relative viability (NCI-H1651; first compound 0.08 µM) was 0.569 and the relative viability (NCI-H1651; first compound 0.253 µM) was 0.454. For the same compound, the relative viability (NCI-H1651; first compound 0.8 µM) was 0.53, the relative viability (NCI-H1651; first compound 2.53 µM) was 0.638 and the relative viability (Calu-6; first compound 0.08 µM) was 1.09. It also gave a relative viability (Calu-6; first compound 0.253 µM) of 0.843, a relative viability (Calu-6; first compound 0.8 µM) of 0.972 and a relative viability (Calu-6; first compound 2.53 µM) of 0.841.
